{"source": "patent US20100273748A1", "about": "“ANTIMICROBIAL THERAPY” (priority 2006, published 2010)", "key": {"CD14 protein": {"test_system": "CD14 protein", "assay": "Western blot of keratinocyte extracts", "format": "cell-based, human", "method": "Western Blot. […] After centrifugation, equal amounts of protein were mixed with loading buffer (0.25M Tris HCL, 10% SDS, 10% glycerol, 5% β-mercaptoethanol) and loaded onto a 10% Tris-Tricine gel (GeneMate, Kaysville, Utah). After separation, proteins were blotted onto a PVDF membrane (Millipore, Billerica, Mass.) and blocked in 5% milk (BioRad) in TBS 0.1% Tween20 for 1 h at RT. After washings in TBS 0.1% Tween20, membranes were stained with a rabbit polyclonal anti-CD14 (Abcam, Cambridge, Mass.) or an anti TLR2 antibody (eBioscience), washed again in TBS 0.1% Tween20 and reprobed with a HRP-coupled goat anti-rabbit antibody (DakoCytomation, Glostrup, Denmark). Stained protein was visualized using the Western Lightning® system (Perkin Elmer, Boston, Mass.)."}, "[1]": {"test_system": "Other TLRs and the TLR coreceptor CD36", "assay": "qPCR of other TLRs and CD36 in cultured keratinocytes", "format": "cell-based", "conditions": "cultured human keratinocytes exposed to 1,25D3", "method": "Cell culture and stimuli. Human keratinocytes were grown in serum-free EpiLife® cell culture media (Cascade Biologics; Portland, Oreg.) containing 0.06 mM Ca2+ and 1× EpiLife® defined growth supplement (EDGS) at 37° C. under standard tissue culture conditions. Stock cultures were maintained for up to five passages in this media with the addition of 50 U/mL penicillin and 50 μg/mL streptomycin. HaCaT keratinocytes were cultured in DMEM (Sigma, St. Louis, Mo.) with 10% FCS. Cells at 50-70% confluence were stimulated in fresh medium after preincubation with 1,25(OH)2 vitamin D3 (1,25D3; 0.1-100 nM, 4-24 h; Sigma). Alternatively, NHEK were stimulated in the presence of 1,25D3 (0.1-100 nM). […]\nReal-time RT-PCR (qPCR). […] Expression of cathelicidin and GAPDH was analysed by real-time RT-PCR. […] Fold induction relative to the vehicle treated control in in vitro experiments was calculated using the comparative Ct method, where ΔΔCt is ΔCt(stimulant)-ΔCt(vehicle), ΔCt is Ct(gene)-Ct(GAPDH) and Ct is the cycle at which an arbitrary detection threshold is crossed. For quantification of transcript abundance in tissue samples target gene expression was normalized to GAPDH and compared to non-treated or non-injured skin."}, "cathelicidin": {"test_system": "cathelicidin", "assay": "Topical treatment of healthy volunteers' skin, cathelicidin expression", "format": "in vivo, human", "conditions": "topical 1,25D3", "method": "Patients and treatments. Human skin wounds were collected following informed consent by inducing 5 mm full-thickness wounds in volunteers (n=5) under aseptic conditions with local anesthesia as described. At 24 hours after incision, 4 mm punch biopsies were taken from the site of injury and immediately fixed in formalin for immunostaining or frozen in liquid N2 for subsequent RNA isolation. Intact skin from healthy volunteers served as control (n=4). To examine the effects of topical 1,25D3, healthy skin of volunteers (n=7) was treated once topically with 1,25D3 (1.0 mM) and left under occlusion for 4 days. Vehicle treated contralateral skin served as a control. After treatment, skin biopsies were obtained from both sites, fixed in formalin 10% and embedded in paraffin for immunostaining. All treatments and sample acquisitions, including skin biopsies, were approved by the committees on investigations involving human subjects.\nImmunostaining. […] Nuclei were detected with DAPI. After subsequent washings with PBS slides, were mounted in ProLong Anti-Fade reagent (Molecular Probes, Eugene, Oreg.) and evaluated with an Olympus BX41 microscope (Olympus, Melville, N.Y.). […]\nNaOH, pH6.0). […] Sections were washed in PBS and detected with biotinylated secondary antibodies (Vector Laboratories, Burlingame, Calif.) and diaminobenzidine substrate (Sigma) per manufacturers' instructions."}, "CD14": {"test_system": "CD14", "assay": "qPCR in differentiated epidermal constructs", "format": "cell-based, human", "conditions": "1,25D3 100 nM", "method": "(§1) Organotypic culture. Epiderm™ human skin-like tissue constructs were obtained from MatTek (Ashland, Mass.) and cultured according to manufacturer's instructions. Skin constructs were cultured in maintenance media (EPI-100-MM, MatTek) and stimulated with Malp-2 (0.1 μg/ml) for 24 hours in the presence of 1,25D3 (100 nM). Skin constructs were cut after stimulation and transferred to Trizol® (Invitrogen, Carlsbad, Calif.) for RNA extraction or immediately frozen in Tissue-Tek® (Sakura, Torrance, Calif.) for immunostaining.\n(§2) Real-time RT-PCR (qPCR). RNA was extracted from cells, epidermal constructs or tissue using Trizol® and 1 μg RNA was reverse transcribed using iScript® (BioRad, Hercules, Calif.). Expression of cathelicidin and GAPDH was analysed by real-time RT-PCR. […] Fold induction relative to the vehicle treated control in in vitro experiments was calculated using the comparative Ct method, where ΔΔCt is ΔCt(stimulant)-ΔCt(vehicle), ΔCt is Ct(gene)-Ct(GAPDH) and Ct is the cycle at which an arbitrary detection threshold is crossed. For quantification of transcript abundance in tissue samples target gene expression was normalized to GAPDH and compared to non-treated or non-injured skin."}, "TLR2": {"test_system": "TLR2", "assay": "qPCR in differentiated epidermal constructs", "format": "cell-based, human", "conditions": "1,25D3 100 nM", "method": "as §1, §2"}}}
{"smiles": "C=C1/C(=C\\C=C2/CCC[C@]3(C)[C@@H]([C@H](C)CCCC(C)(C)O)CC[C@@H]23)C[C@@H](O)C[C@@H]1O", "note": "[1,25D3, 1,25(OH)2 vitamin D3]", "values": [{"measurement": "CD14 protein expression (Western blot)", "setting": "CD14 protein; 1,25D3 100 nM, monolayer keratinocyte extracts", "value": "increases expression"}, {"measurement": "CD14 protein expression (Western blot)", "setting": "CD14 protein; 1,25D3 10^−8M and butyrate 2 mM, 24 hours", "value": "increase in CD14 protein expression"}, {"measurement": "expression of other TLRs and CD36", "setting": "[1]", "value": "remained unchanged"}, {"measurement": "cathelicidin expression in skin", "setting": "cathelicidin", "value": "increased expression"}, {"measurement": "CD14 transcript abundance", "setting": "CD14", "value": "show an increase"}, {"measurement": "TLR2 transcript abundance", "setting": "TLR2", "value": "show an increase"}]}
